Assay results: US20130022641A1, “Anti-Tumor Agent and Immunostimulating Agent” (ORION BREWERIES, LTD., priority 2005, published 2013)

Key:
Format in all cases: in vivo, C57BL/6 mice
[1] = system: NKT cells of the liver; assay: Flow cytometric analysis of liver NKT cells after intraperitoneal administration; conditions: 2 μg/mouse, abdominal cavity
Procedure: C57BL/6 8th-week mice were used. […] Additionally, individuals that received 2 μg/mouse were used as positive controls. After dosing, lymphocytes were separated from the livers of the mice over time. Double labeling immunostaining was undertaken with 2 types of h monoclonal antibodies. FITC-labeled anti-CD3 (Phatrningen) and PE-labeled anti-NK1.1 (Pharmingen). Thereafter, flow cytometric analysis (FACSCalibur, Becton-Dickinson) was undertaken for dynamic states of NKT cells. In addition, a method of lymphocyte separation from the livers and the immunostaining method were subject to the methods of Non-Patent Document 7.
Cytograms show fluorescence intensities for FITC-labeled anti-CD3 on the horizontal axis and PE-labeled anti-NK1.1 antibody on the vertical axis in a log scale fashion. The larger the fluorescence intensities for FITC, the greater the number of CD3 molecules on the surfaces of cells. And the larger the PE fluorescence intensities, the greater the number of NK1.1 molecules on the measured surfaces of cells. […] Additionally, numeric values within the fractions represent the percentages of cells included in such fractions relative to all measured cells.

[2] = system: INF-γ; assay: Level of INF-γ in serum by ELISA; conditions: 2 μg/mouse αGalcer, normal mouse about 40 μg/ml, FIG. 14
Procedure: Mice prepared in the third embodiment were used. After about 1 ml of blood had been collected from each mouse over time, serum was separated. The level of INF-γ in such serum was measured in accordance with the ELISA test. In regards to the ELISA test, a BD Opt EIA set (Pharmingen) was used, and the method was subject to the attached protocol.

[3] = system: GPT; assay: Transaminase values in the serums (GPT), liver damage; conditions: 2 μg/mouse, serum, normal mice about 11 IU/L
Procedure: The mice prepared in the third embodiment were used. After collecting about 1 ml of blood from each mouse over time, serums were separated. Transaminase values in the serums (GPT) were measured using of a Transaminase CII Test Wake (Wake Pure Chemical Industries, Ltd) as an extracorporeal diagnostic kit. The method for measurement was subject to the protocol attached with the kit. In addition, generally speaking, red cells of mice are easily hemolyzed. Thus. GOT values regarding which errors easily occur to results of measurements are not presented herein.
Herein, first, brief explanations are given in regards to GPT in the serums. GPT normally functions in liver cells. Due to destruction of […] caused by liver damage, such as hepatitis and the like, GPT leaks into the blood. Thus, increase of GPT values in the blood is an index of liver damage. Generally, it is understood that liver damage, such as hepatitis and the like, exists when the figures are greater than 100 IU (international unit)/L (liter).

[4] = system: NKT cells (CD3+NK1.1+); assay: Annexin V detection of apoptosis in liver NKT cell fractions; conditions: 2 μg/mouse; 24 hours after dosing; normal mice peak around 10
Procedure: (§1) The basic method for the experiment is the same as that of the third embodiment. C57BL/6 8th-week mice were used. […] And 2 μg/mouse of αGalcer was likewise administered. After 24 hours following the dosing, lymphocytes had been separated from the livers of the mice over time. Triple labeling immunostaining was undertaken by fluorescently-labeled monoclonal antibody based on […] anti-CD3 antibody (Pharmingen) and PE-labeled anti-NK1.1 antibody (Pharmingen) for detection of NKT cells (CD3^+NK1.1^+), and FITC labeled Annexin V (Pharmingen) for detection of apoptosis cells. The method for immunostaining was subject to that of Non-Patent Document 1. Next, PerCP and PE were detected via flow cytometric analysis (FACSCalibur, Becton-Dickinson). Based on the fluorescence intensity thereof, NKT cells fractions (areas shown in c of FIG. 13) were obtained. […] According to the embodiment, cells which caused apoptosis within the fractions were detected via measurement of fluorescence intensity of FITC in such fractions. […]
(§2) Histograms of mouse NKT cell fractions and T cell fractions of unprocessed normal mouse cells are shown (A and D). […] The fluorescence intensity of fluorescent substance C is shown on the horizontal axis and the number of cells (in units) is shown on the vertical axis for each profile. […]

[5] = system: T cells; assay: Annexin V detection of apoptosis in liver T cell fractions (control); conditions: 2 μg/mouse; 24 hours after dosing
Procedure: as §1, §2

For `CCCCCCCCCCCCCCCCCCCCCCCCCC(=O)N[C@@H](CO[C@H]1O[C@H](CO)[C@H](O)[C@H](O)[C@H]1O)[C@H](O)[C@H](O)CCCCCCCCCCCCCC` [αGalCer, a-Galactosyl ceramide], the “NKT cells in the liver” value ([1]; 24 hours following administration) was “such tendency had not changed”, the “NKT cells in the liver” value ([1]; within 12 hours following dosing) was “most NKT cells in the liver disappeared” and the “level of INF-γ in the blood” value [2] was “about 3,000 μg/ml”. For the same compound, the GPT values ([3]; after 12 hours) was 116 IU/L, the GPT values ([3]; after 24 hours) was 183 IU/L and the “peak of Annexin V fluorescence intensity in NKT cell fraction” value [4] was roughly 200. The “apoptosis induction in T cells” value [5] was “Apoptosis induction could not be recognized”.
